ChEMBL document CHEMBL4371076 (J Med Chem, 2019)
Activity calls are given as the source filed them.

How the values were obtained:
[1] = biological target: T1, Sodium channel protein type 9 subunit alpha (Homo sapiens, UniProt Q15858); assay: Inhibition of human Nav1.7 expressed in HEK293 cells after 600 secs at -60 mV holding potential by ion works barracuda population patch clamp method; assay type: cell-based
Target sequence in this assay (Q15858 whole entry): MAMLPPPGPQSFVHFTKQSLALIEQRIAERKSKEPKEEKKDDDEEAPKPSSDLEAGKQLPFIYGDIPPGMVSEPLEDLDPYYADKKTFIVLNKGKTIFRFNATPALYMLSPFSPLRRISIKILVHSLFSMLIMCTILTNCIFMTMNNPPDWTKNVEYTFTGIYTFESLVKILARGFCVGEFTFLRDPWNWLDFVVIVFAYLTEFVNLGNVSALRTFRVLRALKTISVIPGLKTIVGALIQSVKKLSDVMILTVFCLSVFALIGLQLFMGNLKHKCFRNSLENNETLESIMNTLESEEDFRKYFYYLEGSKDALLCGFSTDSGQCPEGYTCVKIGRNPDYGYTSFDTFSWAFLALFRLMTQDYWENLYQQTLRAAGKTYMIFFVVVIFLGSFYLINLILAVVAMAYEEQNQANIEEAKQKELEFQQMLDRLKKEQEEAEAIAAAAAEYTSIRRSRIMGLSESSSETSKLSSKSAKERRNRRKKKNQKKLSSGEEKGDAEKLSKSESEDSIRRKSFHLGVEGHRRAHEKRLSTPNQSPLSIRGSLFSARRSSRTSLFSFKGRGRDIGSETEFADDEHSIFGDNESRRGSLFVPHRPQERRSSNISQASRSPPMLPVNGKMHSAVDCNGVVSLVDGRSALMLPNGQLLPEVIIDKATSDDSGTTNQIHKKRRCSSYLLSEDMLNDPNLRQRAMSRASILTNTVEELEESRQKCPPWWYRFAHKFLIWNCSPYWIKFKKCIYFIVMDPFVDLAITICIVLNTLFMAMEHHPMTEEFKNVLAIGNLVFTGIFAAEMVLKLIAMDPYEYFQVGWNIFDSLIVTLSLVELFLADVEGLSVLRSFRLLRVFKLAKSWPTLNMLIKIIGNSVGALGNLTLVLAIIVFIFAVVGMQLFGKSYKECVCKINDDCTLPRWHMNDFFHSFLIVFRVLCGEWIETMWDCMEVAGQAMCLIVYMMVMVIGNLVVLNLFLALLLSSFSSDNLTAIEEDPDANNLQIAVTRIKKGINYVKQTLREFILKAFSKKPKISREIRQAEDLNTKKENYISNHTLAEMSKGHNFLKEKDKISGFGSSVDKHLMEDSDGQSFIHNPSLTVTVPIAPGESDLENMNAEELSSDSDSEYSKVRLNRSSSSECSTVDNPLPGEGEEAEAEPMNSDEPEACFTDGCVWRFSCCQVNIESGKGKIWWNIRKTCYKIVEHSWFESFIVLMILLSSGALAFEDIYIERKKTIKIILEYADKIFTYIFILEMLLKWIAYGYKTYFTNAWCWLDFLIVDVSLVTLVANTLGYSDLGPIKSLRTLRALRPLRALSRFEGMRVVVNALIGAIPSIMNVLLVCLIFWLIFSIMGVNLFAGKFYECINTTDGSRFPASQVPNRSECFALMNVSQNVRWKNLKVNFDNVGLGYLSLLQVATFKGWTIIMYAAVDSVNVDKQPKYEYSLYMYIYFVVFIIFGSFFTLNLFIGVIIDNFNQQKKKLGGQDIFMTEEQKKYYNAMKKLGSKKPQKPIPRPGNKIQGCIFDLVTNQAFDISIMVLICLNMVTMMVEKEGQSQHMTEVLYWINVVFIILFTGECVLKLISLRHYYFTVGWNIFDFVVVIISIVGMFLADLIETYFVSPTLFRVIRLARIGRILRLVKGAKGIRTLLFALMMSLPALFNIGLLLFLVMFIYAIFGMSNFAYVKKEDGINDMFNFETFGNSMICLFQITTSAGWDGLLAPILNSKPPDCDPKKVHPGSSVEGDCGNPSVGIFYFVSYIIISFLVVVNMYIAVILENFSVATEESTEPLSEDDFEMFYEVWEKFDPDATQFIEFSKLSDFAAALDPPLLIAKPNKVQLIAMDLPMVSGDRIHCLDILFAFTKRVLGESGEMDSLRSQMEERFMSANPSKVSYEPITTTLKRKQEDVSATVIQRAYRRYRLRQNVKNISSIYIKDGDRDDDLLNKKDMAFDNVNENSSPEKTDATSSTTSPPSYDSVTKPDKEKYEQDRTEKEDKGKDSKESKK

[2] = biological target: Sodium channel protein type 5 subunit alpha (Homo sapiens, UniProt Q14524); assay: Inhibition of human Nav1.5 expressed in HEK293 cells after 600 secs at -50 mV holding potential by ion works barracuda population patch clamp method; assay type: cell-based
[3] = Permeability of the compound at pH 7.4 by PAMPA; assay type: ADME; details: read-out: permeability
[4] = Permeability from apical to basolateral side in human Caco2 cells; assay type: ADME, cell-based; details: Caco-2, read-out: permeability
[5] = Efflux ratio of permeability in human Caco2 cells; assay type: ADME, cell-based; details: Caco-2
Cytochrome P450 2B6 = biological target: T2, Cytochrome P450 2B6 (Homo sapiens, UniProt P20813); assay: Inhibition of CYP2B6 in human liver microsomes; assay type: ADME
T2 sequence (P20813 whole entry): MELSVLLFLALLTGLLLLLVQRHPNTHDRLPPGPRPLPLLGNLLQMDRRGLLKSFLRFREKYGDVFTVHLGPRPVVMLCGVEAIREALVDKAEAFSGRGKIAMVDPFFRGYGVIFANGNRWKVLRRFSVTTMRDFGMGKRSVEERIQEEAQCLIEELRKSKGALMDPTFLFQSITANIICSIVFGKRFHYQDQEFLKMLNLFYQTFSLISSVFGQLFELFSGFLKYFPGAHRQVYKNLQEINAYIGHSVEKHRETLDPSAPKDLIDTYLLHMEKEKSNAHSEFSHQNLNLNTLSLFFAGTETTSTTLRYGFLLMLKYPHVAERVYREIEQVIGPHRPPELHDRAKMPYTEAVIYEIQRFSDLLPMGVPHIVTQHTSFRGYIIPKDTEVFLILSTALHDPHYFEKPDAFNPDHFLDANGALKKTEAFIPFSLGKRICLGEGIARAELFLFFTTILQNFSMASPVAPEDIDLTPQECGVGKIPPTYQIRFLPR

Cytochrome P450 2C8 = biological target: T3, Cytochrome P450 2C8 (Homo sapiens, UniProt P10632); assay: Inhibition of CYP2C8 in human liver microsomes; assay type: ADME
T3 sequence (P10632 whole entry): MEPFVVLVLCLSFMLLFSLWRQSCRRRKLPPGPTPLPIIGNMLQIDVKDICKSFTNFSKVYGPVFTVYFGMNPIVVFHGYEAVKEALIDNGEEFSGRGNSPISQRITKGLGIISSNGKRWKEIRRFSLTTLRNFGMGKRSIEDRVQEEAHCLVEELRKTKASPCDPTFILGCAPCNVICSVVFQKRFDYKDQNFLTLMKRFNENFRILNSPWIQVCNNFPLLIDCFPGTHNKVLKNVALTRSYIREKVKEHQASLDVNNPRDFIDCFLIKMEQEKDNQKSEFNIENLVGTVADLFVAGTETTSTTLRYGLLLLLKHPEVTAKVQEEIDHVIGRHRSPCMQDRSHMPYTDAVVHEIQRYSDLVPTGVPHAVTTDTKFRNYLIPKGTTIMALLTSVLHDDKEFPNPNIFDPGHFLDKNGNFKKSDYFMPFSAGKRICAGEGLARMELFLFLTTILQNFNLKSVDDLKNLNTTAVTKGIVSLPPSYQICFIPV

Cytochrome P450 2C19 [6] = biological target: T4, Cytochrome P450 2C19 (Homo sapiens, UniProt P33261); assay: Inhibition of CYP2C19 in human liver microsomes; assay type: ADME
Cytochrome P450 3A4 [7] = biological target: T5, Cytochrome P450 3A4 (Homo sapiens, UniProt P08684); assay: Inhibition of CYP3A4 in human liver microsomes; assay type: ADME
Cytochrome P450 2C19 [8] = biological target: T4, Cytochrome P450 2C19; assay: Time-dependant inhibition of CYP2C19 in human liver microsomes; assay type: ADME
Cytochrome P450 2D6 = Cytochrome P450 2D6 (Homo sapiens, UniProt P10635); assay: Time-dependant inhibition of CYP2D6 in human liver microsomes; assay type: ADME
Cytochrome P450 3A4 [9] = biological target: T5, Cytochrome P450 3A4; assay: Time-dependant inhibition of CYP3A4 in human liver microsomes; assay type: ADME
[10] = biological target: Sodium channel protein type 9 subunit alpha (Mus musculus, UniProt Q62205); assay: Inhibition of recombinant mouse Nav1.7 expressed in HEK293 cells at -70 mV holding potential by patch clamp electrophysiology method; assay type: cell-based
Mus musculus [11] = assay: Analgesic activity in CD1 mouse model of formalin-induced nociception assessed as reduction in formalin-evoked paw flinching/licking response during second phase at 30 mg/kg, po pretreated for 30 mins followed by formalin treatment and measured during 15 to 45 mins post formalin injection; assay type: functional, organism-based
[12] = Plasma concentration in CD1 mouse model of formalin-induced nociception at 30 mg/kg, po; assay type: ADME, organism-based; details: read-out: Cp, in vivo
[13] = Unbound plasma concentration in CD1 mouse model of formalin-induced nociception at 30 mg/kg, po; assay type: ADME, organism-based; details: in vivo
[14] = Unbound drug level in DRG neurons of CD1 mouse model of formalin-induced nociception at 30 mg/kg, po; assay type: ADME, organism-based, DRG neuron; details: in vivo
[15] = biological target: T1, Sodium channel protein type 9 subunit alpha; assay: Inhibition of recombinant human Nav1.7 expressed in HEK293 cells assessed as dissociation time constant at -120 mV holding potential by patch clamp electrophysiology method; assay type: cell-based
Target sequence in this assay (Q15858 whole entry, looked up): as the sequence (Q15858 whole entry) above

[16] = Fraction unbound in mouse trigeminal ganglia neuron tissue; assay type: ADME, tissue-based, Trigeminal ganglion
[17] = Fraction unbound in rat DRG neurons; assay type: ADME
[18] = Plasma concentration in mouse model of mechanoreceptor-mediated afferent transmission at 30 mg/kg, ip after 2 hrs; assay type: ADME, organism-based
Mus musculus [19] = organism: Mus musculus; assay: Reduction in mechanoreceptor-mediated afferent transmission in mouse sural nerve assessed as decrease in mechanically elicited afferent firing at 30 to 100 uM measured at 20 mins post dose at 1.6 to 980 mN threshold pressure; assay type: functional, tissue-based
[20] = Toxicity in CD1 mouse model of formalin-induced nociception assessed as prostration or sedation at 30 mg/kg, ip; assay type: organism-based; details: in vivo
[21] = Toxicity in CD1 mouse model of formalin-induced nociception assessed as hypothermia at 30 mg/kg, ip; assay type: organism-based; details: in vivo
[22] = Plasma concentration in CD1 mouse model of formalin-induced nociception at 30 mg/kg, ip; assay type: ADME, organism-based; details: read-out: Cp, in vivo
[23] = Drug uptake in DRG neurons of CD1 mouse model of formalin-induced nociception at 30 mg/kg, ip; assay type: ADME, organism-based, DRG neuron; details: in vivo, read-out: Drug uptake
[24] = biological target: Sodium channel protein type 2 subunit alpha (Homo sapiens, UniProt Q99250); assay: Inhibition of human Nav1.2 expressed in HEK293 cells after 600 secs at -60 mV holding potential by ion works barracuda population patch clamp method; assay type: cell-based
Mus musculus [25] = assay: Effect on thermal response latency in contralateral paw in CD1 mouse model of CFA-induced thermal hyperalgesia at 30 mg/kg, ip administered 72 hrs post CFA challenge and measured at 60 mins post dose by Hargreave's test; assay type: organism-based; details: in vivo, 1 h
Mus musculus [26] = assay: Antinociceptive activity in CD1 mouse model of chronic constriction injury-induced cold allodynia assessed as increase in latency in response to cold at 30 mg/kg, ip dosed 30 mins before testing starting at 5 weeks after surgery relative to control; assay type: functional
[27] = Plasma concentration in CD1 mouse model of chronic constriction injury-induced cold allodynia at 10 mg/kg, ip dosed at 5 weeks post surgery and measured 60 mins post dose; assay type: ADME, organism-based
[28] = Unbound plasma concentration in CD1 mouse model of chronic constriction injury-induced cold allodynia at 30 mg/kg, ip dosed at 5 weeks post surgery and measured 60 mins post dose; assay type: ADME, organism-based; details: in vivo, 1 h

T4 sequence (P33261 whole entry): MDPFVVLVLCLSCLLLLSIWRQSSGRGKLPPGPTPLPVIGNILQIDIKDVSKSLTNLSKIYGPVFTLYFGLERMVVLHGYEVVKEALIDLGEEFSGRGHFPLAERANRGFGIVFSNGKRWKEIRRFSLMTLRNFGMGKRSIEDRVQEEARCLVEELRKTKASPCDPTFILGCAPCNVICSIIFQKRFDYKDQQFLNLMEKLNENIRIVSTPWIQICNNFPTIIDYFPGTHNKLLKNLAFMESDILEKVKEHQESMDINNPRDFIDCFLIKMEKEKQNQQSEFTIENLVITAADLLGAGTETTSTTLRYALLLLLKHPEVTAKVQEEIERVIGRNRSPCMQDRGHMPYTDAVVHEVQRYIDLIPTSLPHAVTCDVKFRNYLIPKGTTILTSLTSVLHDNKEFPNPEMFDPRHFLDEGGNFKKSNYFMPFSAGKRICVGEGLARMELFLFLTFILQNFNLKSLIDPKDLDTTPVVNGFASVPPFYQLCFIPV
T5 sequence (P08684 whole entry): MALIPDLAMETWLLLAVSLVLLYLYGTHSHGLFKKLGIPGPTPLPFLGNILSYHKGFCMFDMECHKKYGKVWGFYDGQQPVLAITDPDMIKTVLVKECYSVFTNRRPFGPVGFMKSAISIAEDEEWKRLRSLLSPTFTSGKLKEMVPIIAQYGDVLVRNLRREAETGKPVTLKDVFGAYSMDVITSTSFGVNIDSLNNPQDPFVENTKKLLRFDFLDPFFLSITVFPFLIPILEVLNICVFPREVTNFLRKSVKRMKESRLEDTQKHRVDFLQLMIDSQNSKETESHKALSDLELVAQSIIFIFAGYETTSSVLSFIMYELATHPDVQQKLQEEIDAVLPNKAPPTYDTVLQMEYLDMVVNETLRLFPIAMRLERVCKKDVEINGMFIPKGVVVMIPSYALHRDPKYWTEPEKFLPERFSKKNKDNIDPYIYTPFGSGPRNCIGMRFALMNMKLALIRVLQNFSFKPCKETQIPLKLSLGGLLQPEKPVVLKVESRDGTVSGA
Sequence of Sodium channel protein type 5 subunit alpha (Q14524 whole entry): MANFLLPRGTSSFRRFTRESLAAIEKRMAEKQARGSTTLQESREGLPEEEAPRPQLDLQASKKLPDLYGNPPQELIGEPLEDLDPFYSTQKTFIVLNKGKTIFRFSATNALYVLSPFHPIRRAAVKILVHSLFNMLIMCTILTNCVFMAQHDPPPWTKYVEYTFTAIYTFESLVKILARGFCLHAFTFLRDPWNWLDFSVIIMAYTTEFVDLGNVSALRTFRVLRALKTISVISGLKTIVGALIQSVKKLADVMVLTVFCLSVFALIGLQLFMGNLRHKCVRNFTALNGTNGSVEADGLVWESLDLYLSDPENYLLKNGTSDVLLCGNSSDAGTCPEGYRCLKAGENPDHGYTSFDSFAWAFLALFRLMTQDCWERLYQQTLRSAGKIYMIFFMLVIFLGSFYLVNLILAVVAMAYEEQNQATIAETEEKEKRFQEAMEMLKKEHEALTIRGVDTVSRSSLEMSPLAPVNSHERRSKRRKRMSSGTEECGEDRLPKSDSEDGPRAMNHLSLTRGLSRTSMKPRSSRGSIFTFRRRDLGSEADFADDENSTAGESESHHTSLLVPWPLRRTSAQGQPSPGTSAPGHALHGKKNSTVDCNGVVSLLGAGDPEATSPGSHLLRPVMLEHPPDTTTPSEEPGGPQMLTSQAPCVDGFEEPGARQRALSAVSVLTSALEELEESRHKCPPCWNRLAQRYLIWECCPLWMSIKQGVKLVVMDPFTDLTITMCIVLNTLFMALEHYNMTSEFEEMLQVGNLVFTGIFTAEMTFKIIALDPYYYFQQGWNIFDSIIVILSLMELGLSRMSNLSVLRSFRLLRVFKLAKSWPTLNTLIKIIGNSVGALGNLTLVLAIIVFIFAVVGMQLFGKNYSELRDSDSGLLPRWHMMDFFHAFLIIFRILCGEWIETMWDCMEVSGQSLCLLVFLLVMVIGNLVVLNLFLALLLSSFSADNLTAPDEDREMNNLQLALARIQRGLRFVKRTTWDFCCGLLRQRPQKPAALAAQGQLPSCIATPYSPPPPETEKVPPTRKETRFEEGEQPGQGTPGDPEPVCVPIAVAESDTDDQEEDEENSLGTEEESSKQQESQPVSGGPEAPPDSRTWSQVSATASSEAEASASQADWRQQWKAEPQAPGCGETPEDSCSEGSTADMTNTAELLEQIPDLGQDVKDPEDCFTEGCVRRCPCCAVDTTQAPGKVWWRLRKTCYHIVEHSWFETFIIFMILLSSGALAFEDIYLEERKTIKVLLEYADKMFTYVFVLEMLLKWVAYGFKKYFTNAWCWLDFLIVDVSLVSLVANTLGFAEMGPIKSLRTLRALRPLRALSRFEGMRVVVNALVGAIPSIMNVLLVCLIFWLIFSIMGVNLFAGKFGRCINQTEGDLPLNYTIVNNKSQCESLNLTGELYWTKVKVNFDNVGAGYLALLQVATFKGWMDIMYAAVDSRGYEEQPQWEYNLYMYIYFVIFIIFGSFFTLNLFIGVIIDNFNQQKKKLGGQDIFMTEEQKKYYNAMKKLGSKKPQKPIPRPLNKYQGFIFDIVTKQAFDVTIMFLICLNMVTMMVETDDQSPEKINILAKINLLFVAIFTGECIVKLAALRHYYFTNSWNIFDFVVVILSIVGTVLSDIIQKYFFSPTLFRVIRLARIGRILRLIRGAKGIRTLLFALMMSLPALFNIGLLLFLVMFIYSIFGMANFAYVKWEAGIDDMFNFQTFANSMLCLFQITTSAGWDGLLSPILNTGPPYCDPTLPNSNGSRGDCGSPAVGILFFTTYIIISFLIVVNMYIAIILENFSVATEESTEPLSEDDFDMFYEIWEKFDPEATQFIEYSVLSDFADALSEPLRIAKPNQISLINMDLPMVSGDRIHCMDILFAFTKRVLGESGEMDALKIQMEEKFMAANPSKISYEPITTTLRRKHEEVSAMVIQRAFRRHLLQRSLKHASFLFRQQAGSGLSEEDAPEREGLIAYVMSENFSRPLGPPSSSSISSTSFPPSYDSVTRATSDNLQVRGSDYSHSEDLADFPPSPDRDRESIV

Compound | IC50 [1] | IC50 [2] | Papp [3] | Papp A→B [4] | efflux ratio [5] | IC50 (Cytochrome P450 2B6) | IC50 (Cytochrome P450 2C8) | IC50 (Cytochrome P450 2C19 [6]) | IC50 (Cytochrome P450 3A4 [7]) | TDI (Cytochrome P450 2C19 [8]) | TDI (Cytochrome P450 2D6) | TDI (Cytochrome P450 3A4 [9]) | IC50 [10] | TIME [15] | fraction unbound [16] | concentration at 2 h [18] | also measured
CC(C)COc1ccc(-c2cn(C)c3cc(C(=O)NS(C)(=O)=O)c(F)cc23)cn1 | 0.089 µM | 16 µM | 16.4 ×10⁻⁶ cm/s | 6.1 ×10⁻⁶ cm/s | 3.1 | > 40 µM | 1 µM | 4 µM | 15 µM | Not Active | Not Active | Not Active | 0.115 µM | 0.0275 h | 0.069 | 57 µM | Activity (Mus musculus [11]): inactive; concentration [12]: 44 µM; Cp(f) [13]: 0.616 µM; Drug uptake(free) [14]: 84 nM; fraction unbound [17]: 0.039; Activity (Mus musculus [19]): inactive
CC(C)COc1ncc(-c2cn(C)c3cc(C(=O)NS(C)(=O)=O)ccc23)cc1Cl | 0.108 µM | 19 µM | 21.6 ×10⁻⁶ cm/s | < 1.5 ×10⁻⁶ cm/s | > 5.5 | 9.7 µM | 1 µM | 28 µM | > 40 µM | Not Active | Not Active | Not Active | 0.035 µM | 0.0125 h | 0.035 | 89 µM | Activity [20]: Non-Toxic; Activity [21]: Non-Toxic; concentration [22]: 59 µM; concentration [23]: 2.72 µM; IC50 [24]: 16 µM; Activity (Mus musculus [25]): Non-Toxic; Activity (Mus musculus [26]): 25%; concentration at 1 h [27]: 27 µM; Cp(f) [28]: 0.136 µM
